# Experiments:
# MehpH = target: T1, MehpH (Gordonia sp. P8219, UniProt Q2MHH5); test: HPLC of MBP and PA at […] nm; type: biochemical; conditions: 1.0 mM MBP, 1.0 µM enzyme, 10% DMSO
# T1 construct: synthetic gene in pET30a, His-tagged, E. coli BL21(DE3)
# T1 sequence (Q2MHH5 1-311): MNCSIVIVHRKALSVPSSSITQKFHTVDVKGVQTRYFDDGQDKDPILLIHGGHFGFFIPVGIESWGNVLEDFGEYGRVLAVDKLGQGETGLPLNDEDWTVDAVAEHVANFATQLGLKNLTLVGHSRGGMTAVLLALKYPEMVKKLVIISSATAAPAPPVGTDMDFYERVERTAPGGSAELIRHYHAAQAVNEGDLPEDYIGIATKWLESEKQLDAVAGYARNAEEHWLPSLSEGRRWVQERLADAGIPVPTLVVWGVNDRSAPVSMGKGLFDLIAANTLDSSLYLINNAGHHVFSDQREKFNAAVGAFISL
# [1] = target: T2, MehpH (crystallization construct) (Gordonia sp. P8219, UniProt Q2MHH5, D259N); test: X-ray crystallography, […] Å; type: binding; conditions: pH 6.2, 16 °C
# T2 construct: N-terminal 23 residues deleted (core 24-152 and 225-311, lid 153-224), His-tagged, pET30a, E. coli BL21(DE3); four molecules per asymmetric unit
# T2 sequence (Q2MHH5 entry or part of it D259N): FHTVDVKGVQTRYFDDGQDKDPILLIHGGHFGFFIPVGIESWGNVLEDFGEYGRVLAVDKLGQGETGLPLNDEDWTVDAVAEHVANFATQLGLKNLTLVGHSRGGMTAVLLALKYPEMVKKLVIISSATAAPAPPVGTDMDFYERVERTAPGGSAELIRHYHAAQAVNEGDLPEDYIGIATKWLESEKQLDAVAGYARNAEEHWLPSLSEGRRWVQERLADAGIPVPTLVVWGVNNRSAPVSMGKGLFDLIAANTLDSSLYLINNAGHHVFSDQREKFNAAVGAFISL
smiles,measurement,setting,value
"CCCCOC(=O)c1ccccc1C(=O)O [MBP, monobutyl phthalate]",HPLC of MBP and PA at 254 nm,MehpH,Hydrolytic activities of MehpH and its variants using MBP as substrate
"O=C(O)c1ccccc1C(=O)O [PA, phthalic acid]","X-ray crystallography, 2.8 Å","[1]; covalent ester with Ser125 (acyl-enzyme intermediate), crystals of the D259N mutant with MBP",The shape of the electron density is consistent with that of PA
CCCCO [butanol],"X-ray crystallography, 2.8 Å","[1]; non-covalent, in penetrating tunnel next to active site, one of four molecules, crystals with MBP",we discovered the electron density of butanol in the penetrating tunnel
